This is an account of results in patent US5494936A, “Delivery formulation for probucol” (priority 1994, dated 1996).

For series [1] the following is noted: cited from earlier work.
A further series is described as follows: Solubility of probucol. Type of series: physicochemical. Particulars: formulation A; 10% probucol; ethanol not required to prevent precipitation. On the procedure: The ethanol was added as a cosolvent to prevent precipitation of probucol from the peanut oil in formulations B & C.
The next series deals with HIV. Conditions: cited from earlier work.

Like-named read-outs stand apart in the source and are kept apart here.

As to `CC(C)(Sc1cc(C(C)(C)C)c(O)c(C(C)(C)C)c1)Sc1cc(C(C)(C)C)c(O)c(C(C)(C)C)c1` [Probucol, bis(3,5-di-tert-butyl-4-hydroxyphenyl) acetone mercaptole], the water solubility entry in series [1] is recorded as “water-insoluble”; in series [1] (listed as probucol), “substantially water insoluble”. Also, the “solubility in medium chain triglycerides” value in “Solubility of probucol” is on record as “sufficiently soluble in medium chain triglycerides”.
As for `Nc1ccn([C@H]2CC[C@@H](CO)O2)c(=O)n1` [ddC], the death rate in the series on HIV (after 12 months, 20 patients, average CD4+ count on entry 154) is listed as 25%.
In the case of `Cc1cn([C@H]2C[C@H](N=[N+]=[N-])[C@@H](CO)O2)c(=O)[nH]c1=O` [AZT], the death rate in the series on HIV (after one year, 159 patients, estimated average CD4+ count 189) is given as 15%.
